# Measured values: PubChem BioAssay (NCI)
#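 At the GI50, growth is halved. Definition used: TGI = concentration required for complete inhibition of growth.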
# Legend:
# Test in all cases: growth of human tumour cells (NCI), 384-well format
# [1] = test system: A498 renal
# [2] = test system: A549 NSCLC
# [3] = test system: ACHN renal
# [4] = test system: BT-549 breast
# [5] = test system: CAKI-1 renal
# [6] = test system: COLO 205 colon
# [7] = test system: DU-145 prostate
# [8] = test system: EKVX NSCLC
# [9] = test system: HCT-116 colon
# [10] = test system: HCT-15 colon
# [11] = test system: HL-60(TB) leukemia
# [12] = test system: HOP-62 NSCLC
# [13] = test system: HOP-92 NSCLC
# [14] = test system: HS 578T breast
# [15] = test system: HT29 colon
# [16] = test system: IGROV1 ovarian
# [17] = test system: KM12 colon
# [18] = test system: LOX IMVI melanoma
# [19] = test system: MALME-3M melanoma
# [20] = test system: MCF7 breast
# [21] = test system: MDA-MB-231 breast
# [22] = test system: MDA-MB-435 melanoma
# [23] = test system: MDA-MB-468 breast
# [24] = test system: MOLT-4 leukemia
# [25] = test system: NCI-H226 lung
# [26] = test system: NCI-H23 lung
# [27] = test system: NCI-H322M lung
# [28] = test system: NCI-H460 NSCLC
# [29] = test system: NCI-H522 lung
# [30] = test system: NCI/ADR-RES ovarian
# [31] = test system: OVCAR-3 ovarian
# [32] = test system: OVCAR-4 ovarian
# [33] = test system: OVCAR-5 ovarian
# [34] = test system: OVCAR-8 ovarian
# [35] = test system: PC-3 prostate
# [36] = test system: RPMI-8226 leukemia
# [37] = test system: RXF 393 renal
# [38] = test system: SF-268 CNS
# [39] = test system: SF-295 CNS
# [40] = test system: SF-539 CNS
# [41] = test system: SK-MEL-28 melanoma
# [42] = test system: SK-MEL-5 melanoma
# [43] = test system: SK-OV-3 ovarian
# [44] = test system: SN12C renal
# [45] = test system: SNB-19 CNS
# [46] = test system: SNB-75 CNS
# [47] = test system: SR leukemia
# [48] = test system: T-47D breast
# [49] = test system: TK-10 renal
# [50] = test system: U251 glioblastoma
# [51] = test system: UACC-257 melanoma
# [52] = test system: UACC-62 melanoma
# [53] = test system: 786-0 renal
# [54] = test system: CCRF-CEM leukemia
# [55] = test system: HCC-2998 colon
# [56] = test system: K-562 leukemia
# [57] = test system: M14 melanoma
# [58] = test system: SW-620 colon
# [59] = test system: UO-31 renal
structure (smiles),measurement,setting,value
Cn1ncnc1C1c2n[nH]c(=O)c3cc(F)cc(c23)NC1c1ccc(F)cc1 (stereo not drawn),GI50,[1],24800 nM
same,TGI,[1],> 100000 nM
same,GI50,[2],> 100000 nM
same,TGI,[2],> 100000 nM
same,GI50,[3],43600 nM
same,TGI,[3],> 100000 nM
same,GI50,[4],4680 nM
same,TGI,[4],> 100000 nM
same,GI50,[5],> 100000 nM
same,TGI,[5],> 100000 nM
same,GI50,[6],1850 nM
same,TGI,[6],> 100000 nM
same,GI50,[7],2200 nM
same,TGI,[7],14400 nM
same,GI50,[8],> 100000 nM
same,TGI,[8],> 100000 nM
same,GI50,[9],857 nM
same,TGI,[9],> 100000 nM
same,GI50,[10],32500 nM
same,TGI,[10],> 100000 nM
same,GI50,[11],1200 nM
same,TGI,[11],2560 nM
same,GI50,[12],278 nM
same,TGI,[12],4140 nM
same,GI50,[13],> 100000 nM
same,TGI,[13],> 100000 nM
same,GI50,[14],> 100000 nM
same,TGI,[14],> 100000 nM
same,GI50,[15],> 100000 nM
same,TGI,[15],> 100000 nM
same,GI50,[16],> 100000 nM
same,TGI,[16],> 100000 nM
same,GI50,[17],> 100000 nM
same,TGI,[17],> 100000 nM
same,GI50,[18],2430 nM
same,TGI,[18],> 100000 nM
same,GI50,[19],> 100000 nM
same,TGI,[19],> 100000 nM
same,GI50,[20],3630 nM
same,TGI,[20],> 100000 nM
same,GI50,[21],> 100000 nM
same,TGI,[21],> 100000 nM
same,GI50,[22],> 100000 nM
same,TGI,[22],> 100000 nM
same,GI50,[23],677 nM
same,TGI,[23],4680 nM
same,GI50,[24],234 nM
same,TGI,[24],1060 nM
same,GI50,[25],> 100000 nM
same,TGI,[25],> 100000 nM
same,GI50,[26],1890 nM
same,TGI,[26],> 100000 nM
same,GI50,[27],> 100000 nM
same,TGI,[27],> 100000 nM
same,GI50,[28],19.1 nM
same,TGI,[28],1560 nM
same,GI50,[29],> 100000 nM
same,TGI,[29],> 100000 nM
same,GI50,[30],8170 nM
same,TGI,[30],> 100000 nM
same,GI50,[31],82700 nM
same,TGI,[31],> 100000 nM
same,GI50,[32],19000 nM
same,TGI,[32],> 100000 nM
same,GI50,[33],> 100000 nM
same,TGI,[33],> 100000 nM
same,GI50,[34],2150 nM
same,TGI,[34],> 100000 nM
same,GI50,[35],> 100000 nM
same,TGI,[35],> 100000 nM
same,GI50,[36],1650 nM
same,TGI,[36],> 100000 nM
same,GI50,[37],> 100000 nM
same,TGI,[37],> 100000 nM
same,GI50,[38],1730 nM
same,TGI,[38],> 100000 nM
same,GI50,[39],383 nM
same,TGI,[39],8070 nM
same,GI50,[40],1810 nM
same,TGI,[40],> 100000 nM
same,GI50,[41],> 100000 nM
same,TGI,[41],> 100000 nM
same,GI50,[42],> 100000 nM
same,TGI,[42],> 100000 nM
same,GI50,[43],2300 nM
same,TGI,[43],> 100000 nM
same,GI50,[44],1530 nM
same,TGI,[44],> 100000 nM
same,GI50,[45],5200 nM
same,TGI,[45],> 100000 nM
same,GI50,[46],5520 nM
same,TGI,[46],> 100000 nM
same,TGI,[47],21.5 nM
same,GI50,[48],> 100000 nM
same,TGI,[48],> 100000 nM
same,GI50,[49],> 100000 nM
same,TGI,[49],> 100000 nM
same,GI50,[50],3460 nM
same,TGI,[50],> 100000 nM
same,GI50,[51],> 100000 nM
same,TGI,[51],> 100000 nM
same,GI50,[52],> 100000 nM
same,TGI,[52],> 100000 nM
Nc1nc(Cl)nc2c1ncn2[C@@H]1O[C@H](COS(N)(=O)=O)[C@@H](O)[C@H]1O,GI50,[53],17.3 nM
same,TGI,[53],34.1 nM
same,GI50,[1],19.8 nM
same,TGI,[1],39.2 nM
same,GI50,[2],15.6 nM
same,TGI,[2],44 nM
same,GI50,[3],24.3 nM
same,TGI,[3],57.5 nM
same,GI50,[5],15.7 nM
same,TGI,[5],42.2 nM
same,TGI,[54],10.5 nM
same,GI50,[6],18.2 nM
same,TGI,[6],38 nM
same,GI50,[8],22.3 nM
same,TGI,[8],49.5 nM
same,GI50,[55],14.6 nM
same,TGI,[55],28.9 nM
same,TGI,[9],40.9 nM
same,GI50,[10],20.7 nM
same,TGI,[10],45.1 nM
same,GI50,[13],10 nM
same,TGI,[13],25 nM
same,GI50,[14],15.1 nM
same,TGI,[14],29.4 nM
same,GI50,[15],18.4 nM
same,TGI,[15],33.3 nM
same,GI50,[16],20.5 nM
same,TGI,[16],54.7 nM
same,TGI,[56],14 nM
same,TGI,[17],15.1 nM
same,GI50,[18],17.3 nM
same,TGI,[18],31.6 nM
same,GI50,[57],16.6 nM
same,TGI,[57],30.4 nM
same,GI50,[19],11.1 nM
same,TGI,[19],23.3 nM
same,TGI,[20],69.7 nM
same,TGI,[22],16.7 nM
same,GI50,[23],13.3 nM
same,TGI,[23],26.5 nM
same,GI50,[26],10.9 nM
same,TGI,[26],24 nM
same,TGI,[27],27.4 nM
same,TGI,[28],32 nM
same,GI50,[31],20.9 nM
same,TGI,[31],41.5 nM
same,GI50,[35],12.3 nM
same,TGI,[35],33.6 nM
same,TGI,[36],11.8 nM
same,GI50,[37],16.5 nM
same,TGI,[37],31.9 nM
same,TGI,[38],11.4 nM
same,GI50,[39],21.4 nM
same,TGI,[39],48.3 nM
same,GI50,[40],15 nM
same,TGI,[40],28.6 nM
same,GI50,[41],13.8 nM
same,TGI,[41],27.1 nM
same,GI50,[42],15.9 nM
same,TGI,[42],29.6 nM
same,GI50,[43],12.4 nM
same,TGI,[43],44.1 nM
same,TGI,[45],13.6 nM
same,TGI,[46],19.9 nM
same,TGI,[58],42.8 nM
same,TGI,[48],50.7 nM
same,TGI,[49],36 nM
same,GI50,[50],14.3 nM
same,TGI,[50],34.2 nM
same,GI50,[51],20.1 nM
same,TGI,[51],36.5 nM
same,GI50,[52],16.4 nM
same,TGI,[52],30.3 nM
same,GI50,[59],19.4 nM
same,TGI,[59],35.8 nM
